Assay results from patent US20080227688A1, “Inhibition of viral replication” (priority 2007, published 2008).

Test system: reovirus
Type: cell-based, Dearing strain of reovirus serotype 3

Q: Which “cure of persistent reovirus infection (western blot, reovirus antiserum)” value does the source give for `C[C@H](NC(=O)[C@H](Cc1ccccc1)NC(=O)OCc1ccccc1)C(=O)CF` [Z-FA-FMK, N-benzyloxycarbonyl-Phe-Ala-fluoromethylketone] here?
A: The value was “cured persistently infected cells”.
